# What was measured:
# [1] = test system: PIN2 (marker gene for the jasmonic acid signaling pathway); test: Semi-field release assay, transcriptional response of PIN2 in tomato plants; format: in vivo; details: 4 weeks
# Experimental: Two different types of polymeric emitters were used to test the activation level that different emission levels of (Z)-3-hexenyl propionate can provide: 4-mL low-density (LD) polyethylene vial and 4-mL high-density (HD) polyethylene vial. The highest emission level (5 mg/day) was achieved through previous laboratory studies with LD dispensers loaded with 20 mg of the pure substance. The lowest emission level (0.01 mg/day) was provided by HD vials loaded with a 1:100 mixture of (Z)-3-hexenyl propionate and paraffinic oil (0.02:2; g:g). The emission kinetics of the emitters used during the experiments was controlled by studying weight loss (gravimetric method). […] The difference in weight recorded in each period will be the emitted quantity of the substance for each type of dispenser. To obtain the mean emission level of each dispenser, the recorded weights (y) are related to the aging time (x) using a multiple regression analysis.
# Once the mentioned emission levels have been established, 5 and 0.01 mg/day/dispenser, tomato plants were exposed to the different emission levels through an experiment under semi-field conditions in a glass greenhouse. […] Environmental conditions were monitored and recorded using a Mithra clima data logger (ver. 1.01.03, Priva nutricontrol Ibérica S.L). […]
# [2] = test system: PAL (salicylic acid pathway); test: Transcriptional response of PAL in Carrizo citrange plants exposed to the volatile; format: in vivo; details: intact Carrizo citrange plants exposed 24 h; n=6
# Experimental: Two weeks after seed germination, the seedlings were individually transplanted into pots (8×8×8 cm). The plants were kept in a greenhouse with a plastic cover at approximate climatic conditions of 25±5° C., a relative humidity of 65%±5%, and a natural light photoperiod, about 14:10 h (light:dark). Carrizo citrange plants that had not received any pesticide treatment at 8 weeks of age (approximately 20 cm tall) were used. The volatile (Z)-3-hexenyl propanoate was obtained from Sigma-Aldrich (St. Louis, Mo., USA). The volatile was exposed by using a 2×2 cm piece of filter paper on which 10 μl of a solution containing the corresponding volatile at a concentration of 1:10,000 [(Z)-3-hexenyl propanoate:methanol] was impregnated as an emitting source of the corresponding volatile (Pérez-Hedo, M. et al. Biocontrol, 63: 203-213 (2018)). […]
# The methodology followed for the extraction and quantification of gene expression was described by Pérez-Hedo et al. Journal of Pest Science 3: 543-554 (2015). The primers used were forward primer: 5′-[…]-3′ (SEQ ID NO: 11) and reverse primer: 5′-[…]-3′ (SEQ ID NO: 12) for the quantification of LOX2, forward primer: 5′-[…]-3′ (SEQ ID NO: 13) and reverse primer: 5′-[…]-3′ (SEQ ID NO: 14) for PAL and forward primer: 5′-[…]-3′ (SEQ ID NO: 15) and reverse primer: 5′-[…]-3′ (SEQ ID NO: 16) for the NPR5 gene. […]
structure (smiles),measurement,setting,value
CC/C=C\CCOC(=O)CC [(Z)-3-hexenyl propanoate],Transcriptional response of PIN2 (jasmonic acid pathway),"[1]; 0.01 mg/day emission, HD polyethylene vial",did not affect exposed plants
same,Transcriptional response of PIN2 (jasmonic acid pathway),"[1]; 5 mg/day emission, LD polyethylene vial",significantly activated
same,Transcriptional response of PAL compared to control,[2],significantly overexpressed
